Experimental data reported in patent publication US5846566A, “Microcapsules for the controlled release of acetylsalicylic acid in the gastrointestinal environment” (Flamel Technologies, priority 1993, dated 1998).

Tests used:
[1] = acute oral toxicity in rats; format: in vivo, rat (Sprague-Dawley); details: rat, in vivo, 14 days
Description: (§1) The microcapsules of aspirin M1 prepared according to Example 1 were subjected to a toxicological study by comparison with commercial aspirin (CA) in the form of a white powder. The acute toxicity of these two pharmaceutical forms of aspirin was evaluated and compared by oral administration to rats.
(§2) Each of the two formulations of the product was administered orally to groups of 10 Sprague-Dawley rats (5 males and 5 females) in a volume of 10 ml/kg and in suspension in 0.5% carboxymethyl cellulose. […] All the animals were placed on a water diet before the treatment.
(§3) The mortality, the general behavior and the weight change of the surviving animals were followed for a period of 14 days after the single administration of the product. An anatomicopathological examination was carried out on each of the animals found dead or sacrificed at the end of the study.
(§4) The LD50 was calculated by Finney's method.

[2] = system: Sprague-Dawley rats; assay: acute oral toxicity in rats; format: in vivo, rat (Sprague-Dawley)
Description: as §1, §2, §3, §4

[3] = system: serum thromboxane B2; assay: inhibition of serum thromboxane B2 after repeated administration for 28 days; format: in vivo, human; details: as from the third day of treatment; 320 mg encapsulated or 350 mg control ASA daily
Description: (§5) Twelve healthy male volunteers were assigned to one or other of the following two treatments according to a randomization schedule obtained by drawing lots. Group A received one 320 mg gelatin capsule of encapsulated ASA (microcapsules M1 of Example 1) orally every morning for 28 days. Group B received 350 mg of non-encapsulated control ASA in solution every morning for 28 days.
In both cases, the subjects took the treatments with 200 ml of water.
Samples (5 cl) for measurement of the serum thromboxane B2 were taken before administration of the daily treatment on D1, D2, D3, D4, D5, D14, D21, D27, D28 and D42.
(§6) The aspirin and salicylic acid were analyzed using an HPLC method specially developed for assaying low levels in biological media. The serum thromboxane B2 was analyzed using an enzyme immunoassay method described by […] et al. [Analytical Chemistry 57, 1170-1173 (1985); Ann. Biol. Clin. 43, 475-484 (1985)]. For the urine samples, the 11-dehydrothromboxane B2, dinorthromboxane B2 and dinor-6-ketoprostaglandin F1α were analyzed by the method cited above, with prior extraction in the solid phase and purification by thin layer chromatography. This method was validated by gas chromatography coupled with mass spectrometry using a negative ion ionization detector [LELLOUCHE et al., Prostaglandine 40, 297-310 (1990)].

[4] = system: 11-dehydrothromboxane B2; assay: inhibition of urinary 11-dehydrothromboxane B2, repeated administration; format: in vivo, human; details: 28 days; 320 mg encapsulated or 350 mg control ASA daily
Description: as §5
(§7) During each period, urine samples were taken from each subject for assaying the creatininuria and measuring the platelet and vascular prostaglandins.
(§8) The morning urine was collected at 7 am on days D1, D2, D14, D27 and D28. The subjects were asked to empty their bladder between midnight and 1 am and then not to urinate again until the morning so that the 6-hour urine could be obtained. The morning urination was performed before the subjects got up. Of each sample collected: […]
as §6, with “Biol. Clin. 43, 475-484 (1985)].” left out, “This method was validated by gas chromatography coupled with mass spectrometry using a negative ion ionization detector [LELLOUCHE et al., Prostaglandine 40, 297-310 (1990)].” left out

[5] = system: urinary dinorthromboxane B2; assay: inhibition of urinary dinorthromboxane B2, repeated administration; format: in vivo, human; details: 28 days; 320 mg encapsulated or 350 mg control ASA daily
Description: as §5, §7, §8
as §6, with “Biol. Clin. 43, 475-484 (1985)].” left out, “This method was validated by gas chromatography coupled with mass spectrometry using a negative ion ionization detector [LELLOUCHE et al., Prostaglandine 40, 297-310 (1990)].” left out

[6] = system: prostacycline; assay: inhibition of prostacycline (urinary dinor-6-ketoprostaglandin F1α), repeated administration; format: in vivo, human; details: 28 days; 320 mg encapsulated or 350 mg control ASA daily
Description: as §5, §7, §8
as §6, with “Biol. Clin. 43, 475-484 (1985)].” left out, “This method was validated by gas chromatography coupled with mass spectrometry using a negative ion ionization detector [LELLOUCHE et al., Prostaglandine 40, 297-310 (1990)].” left out

[7] = system: thromboxane B2 of renal origin; assay: urinary excretion of thromboxane B2 (renal origin), repeated administration; format: in vivo, human; details: 28 days; 320 mg encapsulated or 350 mg control ASA daily
Description: as §5, §7
(§9) The morning urine was collected at 7 am on days D1, D2, D14, D27 and D28. The subjects were asked to empty their bladder between midnight and 1 am and then not to urinate again until the morning so that the 6-hour urine could be obtained. The morning urination was performed before the subjects got up. Of each sample collected:
(§10) 40 ml were transferred to two appropriately labeled 20 ml polypropylene tubes, which were then frozen immediately at -20° C.
(§11) Thromboxane B2 and 6-ketoprostaglandin F1α are metabolites of […] of renal origin.

[8] = system: 6-ketoprostaglandin F1α; assay: urinary excretion of 6-ketoprostaglandin F1α (renal origin), repeated administration; format: in vivo, human; details: 28 days; 320 mg encapsulated or 350 mg control ASA daily
Description: as §5, §7, §9, §10, §11

[9] = system: thromboxane; details: daily dose; very substantially below the minimum percentage; cited from earlier work
[10] = system: vascular prostacycline; details: daily dose; cited from earlier work

Compound: CC(=O)Oc1ccccc1C(=O)O [CA, acetylsalicylic acid]
- LD50 at 336 h [1]: 1430 mg/kg
- autopsy findings ([2]; 740 and 1110 mg/kg): no macroscopic anomalies
- autopsy findings ([2]; 1670 and 2500 mg/kg, animals found dead): abnormally blackish coloration of the liver, a discoloration with wall thickening in the digestive tract (intestines and stomach) and reddish petechiae in the stomach
- weight change ([2]; CA 740-2500 mg/kg (between day 1 and day 5), CRA 2500 mg/kg (throughout the study)): slight drop in the weight gain, related to the dose administered
- general behavior ([2]; CA 740-2500 mg/kg, CRA 2500 mg/kg): a drop in the spontaneous activity, related to the dose administered, and piloerection
- LD50, lower limit of the confidence interval ([2]; probability threshold of 95%): 936 mg/kg
- LD50, upper limit of the confidence interval ([2]; probability threshold of 95%): 2394 mg/kg

Compound: CC(=O)Oc1ccccc1C(=O)O [control ASA, acetylsalicylic acid]
- inhibition of thromboxane originating from the platelets [3]: 98.15%
- inhibition of urinary metabolite of thromboxane (11-dehydrothromboxane B2, first value pair) [4]: 75.6%
- inhibition of urinary metabolite of thromboxane (dinorthromboxane B2, second value pair) [5]: 68.9%
- inhibition of the prostacycline [6]: 43.2%
- inhibition of prostaglandins of renal origin (thromboxane B2, first value pair) [7]: 42.8%
- inhibition of prostaglandins of renal origin (6-ketoprostaglandin F1α, second value pair) [8]: 34.6%

Compound: CC(=O)Oc1ccccc1C(=O)O [conventional aspirin, acetylsalicylic acid]
- thromboxane inhibition [9]: < 95%
- inhibition of vascular prostacycline [10]: 25%
